Legend:
[1] = biological target: T1, TrkB S440A (Rattus norvegicus, UniProt Q63604, S440A); test: ^3H-LSD saturation binding, TrkB mutant
T1 construct: expressed in transfected cells; host or cells: HEK293T

[2] = tested on: TrkB pY816; test: pY816 in PFC and hippocampus after single LSD injection (ELISA, immunoblot); type: in vivo; conditions: mouse brain samples, single administration
Method: The phosphorylation of TrkB (pY816) and interaction with PLCγ1 were assessed by enzyme-linked immunosorbent assay (ELISA) as previously described[11],[80],[81] with minor modifications. Briefly, white 96-well plates (PerkinElmer, OptiPlate 96F-HB) were precoated with goat anti-TrkB (R&D systems, AF1494; 1:500, overnight, 4 °C) antibody in carbonate buffer (pH 9.8) and blocked with 3% BSA in PBS with 0.1% Tween-20 (PBS-T) for 2 h at room temperature. […] Samples were incubated overnight at 4 °C, and 24 h later plates were washed with PBS-T and incubated with either rabbit anti-phospho-TrkB(Tyr816) (Cell Signaling Technology, 4168S; 1:2,000), rabbit anti-PLCγ1 (Cell Signaling Technologies, 5690S; 1:2,000) or rabbit anti-Trk (Cell Signaling Technologies, 92991; 1:2,000) antibodies overnight at 4 °C. After washing with PBS-T, plates were incubated with HRP-conjugated goat anti-rabbit (Bio-Rad, 170–5046; 1:5,000, 1 h, room temperature) antibody, followed by more washing with PBS-T. Finally, the chemiluminescent signal was read after brief incubation with Pierce ECL substrate (Thermo Fisher Scientific, 32106). Luminescence from blank wells that contained all reagents but the sample lysates was used to determine background signal. […]

[3] = tested on: TrkB; test: Western blot of TrkB protein expression in N2a cells; type: cell-based; conditions: WT and Y433F^+/−
Method: In a separate set of experiments to examine the effect of 5-HT2A activation, M100907 (100 nM) was administered as a 10 min pretreatment and remained in the medium for the rest of the experiment. Next, cells were lysed and centrifuged. […] The co-immunoprecipitation was carried out as previously described[11],[23],[24] with minor modifications. Briefly, Magnetic Dynabeads Protein G (Invitrogen, 10004D) were coated with anti-TrkB antibody (R&D Systems, AF1494) at 200 ng of antibody per 1 µl of beads in rotation (2 h, 4 °C). Finally, lysates were mixed with the coated beads (100 µg of total protein per 15 µl of beads) and incubated in rotation (overnight, 4 °C).
Proteins were separated according to their molecular weight by SDS–PAGE and transferred to a polyvinylidene fluoride membrane. Membranes were incubated with the following primary antibodies (all 1:1,000 in 3% BSA in TBS-T, overnight, 4 °C): anti-TrkB (R&D Systems, AF1494), anti-β-actin (Sigma-Aldrich, A1978), anti-phospho-mTOR (Cell Signaling Technology, 5536S), anti-phospho-p44/42 MAPK (Erk1/2) (Cell Signaling Technology, 9106S), anti-mTOR (Cell Signaling Technology, 2972S) and anti-p44/42 MAPK (Erk1/2) (Cell Signaling Technology, 9102S). […] Protein bands were visualized using enhanced chemiluminescent substrate (Thermo Scientific, 32132, ECL Plus) and imaged with a charge-coupled device camera (G:BOX, Syngene).

[4] = tested on: mice; test: Contextual fear conditioning, extinction and fear reinstatement (incl. baseline locomotor activity); type: in vivo, mouse; conditions: for Mean, figure 7k (contextual fear conditioning) / Mean, figure 7i (contextual fear conditioning) / Mean, figure 7j (contextual fear conditioning): LSD group; for Mean Diff., ext fig 7e: e7e; for Mean Diff., ext fig 7f: e7f; for Mean Diff., ext fig 7o: e7o, Bonferroni's multiple comparisons test
Method: Male WT mice (C57BL/6JRccHsd, Envigo) were used for contextual fear conditioning experiments with and without extinction training as previously described[11],[34] with modifications. Briefly, animals were conditioned in context A (metallic bar flooring, transparent Plexiglass walls, 23 × 23 × 35 cm arena) with a series of five scrambled foot shocks (0.6 mA, 2 s) along a 480 s session. […] During the following 3 days, mice were exposed to extinction training in context A for 480 s every 24 h or placed for the same duration and number of sessions in context B (black planar floor, black nontransparent walls, 23 × 23 × 35 cm arena), which we categorized as extinction and no extinction trainings, respectively. Afterwards, animals were placed back into their home cage and left undisturbed for 3 weeks. Finally, all mice were reconditioned with a new set of five scrambled foot shocks (0.6 mA, 2 s) along a 480 s session in context A, and their fear reinstatement response was measured 24 h later for the same duration also in context A. All sessions were conducted under constant illumination (100 lux). For the contextual fear conditioning and fear reinstatement experiment with male WT and Y433F^+/−, we used the same protocol as for animals undergoing extinction training in context A above. Baseline freezing was established during the first conditioning session. Movement was measured by infrared beams placed on the sides of the conditioning chamber, and freezing was automatically determined by the fear conditioning apparatus and software (TSE Systems) and expressed as the percentage of time spent freezing.

[5] = tested on: TrkB cell surface retention; test: Cell surface retention of TrkB in cortical neurons; type: cell-based, rat
Method: The cell surface retention of TrkB was measured as previously described[11],[82]. […] For antagonist experiments, cultures were pretreated with M100907 (100 nM) for 10 min and remained present for the rest of the experiment. After washing with PBS and incubating for 1 h with blocking buffer (5% nonfat dry milk and 5% BSA) at room temperature, plates were incubated with goat anti-TrkB antibody (R&D Systems, AF1494; 1:1,000, overnight, 4 °C). After further PBS washes, plates were incubated with HRP-conjugated […] antibody (Bio-Rad, 170–5046; 1:5,000, 1 h, room temperature). Finally, wells were washed with PBS and the chemiluminescent signal was read after brief incubation with Pierce ECL substrate (Thermo Fisher Scientific, 32106).

[6] = WT:Saline vs. WT:LSD, uncorrected Fisher's LSD
[7] = Y433F+/-:Saline vs. Y433F+/-:LSD, uncorrected Fisher's LSD
[8] = WT mice, saline minus LSD, uncorrected Fisher's LSD
[9] = Y433F+/- mice, saline minus LSD, uncorrected Fisher's LSD
[10] = means over WT and Y433F+/- mice

T1 sequence (Q63604 32-821 S440A): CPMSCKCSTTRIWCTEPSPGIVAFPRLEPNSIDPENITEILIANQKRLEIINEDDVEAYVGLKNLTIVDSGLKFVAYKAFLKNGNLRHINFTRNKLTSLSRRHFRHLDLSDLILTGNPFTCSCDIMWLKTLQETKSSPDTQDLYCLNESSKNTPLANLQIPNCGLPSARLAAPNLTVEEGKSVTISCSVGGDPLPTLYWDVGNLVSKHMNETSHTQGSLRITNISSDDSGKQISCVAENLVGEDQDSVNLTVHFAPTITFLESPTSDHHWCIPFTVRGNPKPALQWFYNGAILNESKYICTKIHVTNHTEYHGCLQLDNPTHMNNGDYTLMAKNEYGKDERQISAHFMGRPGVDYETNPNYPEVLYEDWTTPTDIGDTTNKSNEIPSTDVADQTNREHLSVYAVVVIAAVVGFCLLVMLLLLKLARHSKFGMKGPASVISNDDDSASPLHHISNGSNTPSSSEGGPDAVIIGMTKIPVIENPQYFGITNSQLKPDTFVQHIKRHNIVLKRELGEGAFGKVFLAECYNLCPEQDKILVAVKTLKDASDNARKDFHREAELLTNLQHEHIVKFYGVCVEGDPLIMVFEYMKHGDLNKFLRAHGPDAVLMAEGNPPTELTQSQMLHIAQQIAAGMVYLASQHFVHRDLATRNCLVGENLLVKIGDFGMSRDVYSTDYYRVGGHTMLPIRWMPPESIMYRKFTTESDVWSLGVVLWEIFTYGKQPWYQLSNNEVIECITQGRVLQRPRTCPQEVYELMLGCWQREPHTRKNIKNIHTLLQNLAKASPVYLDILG

Compound: CCN(CC)C(=O)C1C=C2c3cccc4[nH]cc(c34)CC2N(C)C1 (centres unmarked) [LSD, lysergic acid diethylamide]
- Kd [1]: 0.714 nM
- Bmax (best-fit, 1a) ([1]; S440A): 114.7
- h (best-fit, 1a) ([1]; S440A): 1.945
- LSD binding ([1]; S440A mutation): did not influence LSD binding
- TrkB phosphorylation (pY816) [2]: increases phosphorylation of TrkB tyrosine 816 (pY816)
- total TrkB expression [3]: No differences in total TrkB expression
- Mean Diff., Fig. 7i [4, 6]: 14.87
- Mean Diff., Fig. 7i [4, 7]: -1.67
- Mean Diff., Fig. 7j [4, 6]: 16.98
- Mean Diff., Fig. 7j [4, 7]: -1.138
- Mean Diff., Fig. 7k ([4]; Ext.:Saline vs. Ext.:LSD, uncorrected Fisher's LSD): 21.67
- Mean Diff., Fig. 7k ([4]; No ext.:Saline vs. No ext.:LSD, uncorrected Fisher's LSD): 7.778
- Mean, figure 7k (contextual fear conditioning) ([4]; Ext. (extinction training)): 20.42
- Mean Diff., figure 7k, Ext.:Saline vs. Ext.:LSD ([4]; Ext., saline minus LSD, uncorrected Fisher's LSD): 21.67
- fear extinction without extinction training ([4]; LSD alone, no extinction training): does not bring about fear extinction
- Mean, figure 7k (contextual fear conditioning) ([4]; No ext.): 44.56
- Mean Diff., figure 7k, No ext.:Saline vs. No ext.:LSD ([4]; No ext., saline minus LSD, uncorrected Fisher's LSD): 7.778
- contextual extinction of conditioned fear response ([4]; WT mice, 72 h after single administration, persists at least 4 weeks, with extinction training): facilitates contextual extinction of conditioned fear response
- Mean, figure 7i (contextual fear conditioning) ([4]; WT mice): 20.6
- Mean, figure 7j (contextual fear conditioning) ([4]; WT mice): 39.47
- Mean Diff., figure 7i, WT:Saline vs. WT:LSD [4, 8]: 14.87
- Mean Diff., figure 7j, WT:Saline vs. WT:LSD [4, 8]: 16.98
- Mean, figure 7i (contextual fear conditioning) ([4]; Y433F+/- mice): 34.18
- Mean, figure 7j (contextual fear conditioning) ([4]; Y433F+/- mice): 54.05
- Mean Diff., figure 7i, Y433F+/-:Saline vs. Y433F+/-:LSD [4, 9]: -1.67
- Mean Diff., figure 7j, Y433F+/-:Saline vs. Y433F+/-:LSD [4, 9]: -1.138
- contextual extinction of conditioned fear response ([4]; Y433F^+/− mice): these short- and long-term effects are lost
- Mean Diff., ext fig 7e [4, 6]: -2.065
- Mean Diff., ext fig 7e [4, 7]: -2.882
- Mean Diff., ext fig 7f [4, 6]: -1.252
- Mean Diff., ext fig 7f [4, 7]: -6.692
- Mean Diff., ext fig 7o ([4]; Ext.:Saline vs. Ext.:LSD): 6.343
- Mean Diff., ext fig 7o ([4]; No ext.:Saline vs. No ext.:LSD): -0.7639
- Predicted (LS) mean of LSD, figure 7i ([4]; mean over WT and Y433F+/- mice): 27.39
- Predicted (LS) mean of LSD, figure 7j ([4]; mean over WT and Y433F+/- mice): 46.76
- Difference between predicted means (Saline - LSD), figure 7i [4, 10]: 6.598
- Difference between predicted means (Saline - LSD), figure 7j [4, 10]: 7.923
- TrkB cell surface retention [5]: increases TrkB cell surface retention independently of 5-HT2A activation
